Source: US20260062422A1 (Halda Therapeutics OpCo, Inc., priority 2022, published 2026)

Experiments:
[1] = system: T-Rex 293 cell line SC3 cells having increased expression of androgen receptor protein due to exposure to doxycycline; assay: Cellular growth inhibition, T-Rex 293 SC3 cells with doxycycline (androgen receptor induced), CellTiter-Glo; type: cell-based; settings: 72 h, T-Rex 293 SC3 cells with 10 ng/mL doxycycline (increased androgen receptor expression)
Summary of the method: (§1)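 SC3 is a T-Rex 293 clone stably transfected with wild-type androgen receptor in pcDNA4/TO, inducible by 10 ng/mL doxycycline. Cells were grown in phenol red-free DMEM with 10% charcoal-dextran FBS, with or without doxycycline, dosed 24 h after seeding (0.5% DMSO) for 72 h. Viability was read by CellTiter-Glo 2.0 luminescence and GI50 obtained from four-parameter fits.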

VCaP cells = assay: Cellular growth inhibition assay for VCaP cells, CellTiter-Glo; type: cell-based, human; settings: Homo sapiens, VCaP, 72 h, 72 hours treatment, CellTiter-Glo 2.0
Summary of the method: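 GI50 values come from four-parameter curve fits of luminescence data normalized to a zero baseline. Compound, in medium with 0.5% DMSO, was added one day after plating and left for 72 h before CellTiter-Glo 2.0 addition.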

T47D cells = assay: Cellular growth inhibition assay for T47D cells, CellTiter-Glo; type: cell-based, human; settings: Homo sapiens, T47D, 72 h, 72 hours treatment, CellTiter-Glo 2.0 cell viability
Summary of the method: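 Cells are plated at 3000/well and allowed 24 h before treatment. Test compound in medium containing 0.5% DMSO is then added, with DMSO-only wells as negative control, and plates are incubated 72 h at 37 °C. ATP luminescence (CellTiter-Glo 2.0) is then fitted to four parameters to derive GI50.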

[2] = system: T-Rex 293 cell line SC3 cells lacking increased expression of androgen receptor protein; assay: Cellular growth inhibition, T-Rex 293 SC3 cells without doxycycline, CellTiter-Glo; type: cell-based; settings: 72 h, T-Rex 293 SC3 cells not exposed to doxycycline, CellTiter-Glo 2.0
Summary of the method: as §1

`Cc1sc2c(c1C)C(c1ccc([C@H]3CCCCN3C(=O)[C@H]3CCCN(c4ncc(C(=O)N[C@H]5C(C)(C)[C@@H](Oc6ccc(C#N)c(Cl)c6)C5(C)C)cn4)C3)cc1)=N[C@@H](Cc1ncco1)c1nnc(C)n1-2` [Compound I-359] gave a GI50 [1] of under 0.5 µM, a GI50 (VCaP cells) of under 0.5 µM and a GI50 (T47D cells) of over 3 µM. It also gave a GI50 [2] of over 3 µM.
Compound `Cc1sc2c(c1C)C(c1ccc(CN3CC4(CCN(c5ncc(C(=O)N[C@H]6C(C)(C)[C@H](Oc7ccc(C#N)c(Cl)c7)C6(C)C)cn5)CC4)C3)cc1)=N[C@@H](Cc1ncco1)c1nnc(C)n1-2` [Compound I-141] has a GI50 [1] of under 0.5 µM, a GI50 (VCaP cells) of under 0.5 µM and a GI50 (T47D cells) of over 3 µM. It also gave a GI50 [2] of 0.5 to 1.5 µM.
`Cc1sc2c(c1C)C(c1ccc(OC3CC4(CCN(c5ncc(C(=O)N[C@H]6C(C)(C)[C@H](Oc7ccc(C#N)c(Cl)c7)C6(C)C)cn5)CC4)C3)cc1)=N[C@@](C)(C(C)c1ncco1)c1nnc(C)n1-2` (stereo partly shown) [Compound I-262] was tested, and the GI50 [1] was under 0.5 µM, the GI50 (VCaP cells) was over 3 µM and the GI50 (T47D cells) was over 3 µM. It also gave a GI50 [2] of over 3 µM.
Compound `Cc1sc2c(c1C)C(c1ccc(C(=O)N3CCC(N(C)c4ncc(C(=O)N[C@H]5C(C)(C)[C@H](Oc6ccc(C#N)c(Cl)c6)C5(C)C)cn4)CC3)cc1)=N[C@@H](Cc1ncco1)c1nnc(C)n1-2` [Compound I-293] has a GI50 [1] of under 0.5 µM, a GI50 (VCaP cells) of over 3 µM and a GI50 (T47D cells) of over 3 µM. It also gave a GI50 [2] of over 3 µM.
Work on `CCNC(=O)C[C@@H]1N=C(c2ccc(N3CCC(CN4CCN(c5ncc(C(=O)N[C@H]6C(C)(C)[C@H](Oc7ccc(C#N)c(Cl)c7)C6(C)C)cn5)CC4)CC3)cc2)c2c(sc(C)c2C)-n2c(C)nnc21` [Compound I-109] yielded a GI50 [1] of under 0.5 µM, a GI50 (VCaP cells) of under 0.5 µM and a GI50 (T47D cells) of under 0.5 µM. It also gave a GI50 [2] of 0.5 to 1.5 µM.
`Cc1sc2c(c1C)C(c1ccc(C#C[C@H]3C[C@@]4(CCCN(c5ncc(C(=O)N[C@H]6C(C)(C)[C@H](Oc7ccc(C#N)c(Cl)c7)C6(C)C)cn5)C4)C3)cc1)=N[C@@H](Cc1ncco1)c1nnc(C)n1-2` [Compound I-268] was tested, and the GI50 [1] was under 0.5 µM, the GI50 (VCaP cells) was 1.5 to 3 µM and the GI50 (T47D cells) was 0.5 to 1.5 µM. The GI50 [2] was over 3 µM.
In the case of `Cc1sc2c(c1C)C(c1ccc(C(=O)N3CCN(C(=O)c4ncc(C(=O)N[C@H]5C(C)(C)[C@H](Oc6ccc(C#N)c(Cl)c6)C5(C)C)cn4)CC3)cc1)=N[C@H](Cc1ncco1)c1nnc(C)n1-2` [Compound I-286], the GI50 [1] was 0.5 to 1.5 µM, the GI50 (VCaP cells) was over 3 µM and the GI50 (T47D cells) was over 3 µM. The GI50 [2] was over 3 µM.
In the case of `Cc1sc2c(c1C)C(c1ccc(N3CCC(C4CCN(c5cnc(C(=O)N[C@H]6C(C)(C)[C@H](Oc7ccc(C#N)c(Cl)c7)C6(C)C)cn5)CC4)CC3)cc1)=N[C@@H](C)c1nnc(C)n1-2` [Compound I-437], the GI50 [1] was under 0.5 µM, the GI50 (VCaP cells) was over 3 µM and the GI50 (T47D cells) was under 0.5 µM. The GI50 [2] was over 3 µM.
Work on `Cc1sc2c(c1C)C(c1ccc(CN(C)C(=O)CN(C)c3ncc(C(=O)N[C@H]4C(C)(C)[C@H](Oc5ccc(C#N)c(Cl)c5)C4(C)C)cn3)cc1)=N[C@@H](Cc1ncco1)c1nnc(C)n1-2` [Compound I-335] yielded a GI50 [1] of under 0.5 µM, a GI50 (VCaP cells) of 0.5 to 1.5 µM and a GI50 (T47D cells) of 0.5 to 1.5 µM. For the same compound, the GI50 [2] was over 3 µM.
Work on `Cc1sc2c(c1C)C(c1ccc(OC3CC4(CCN(c5ncc(C(=O)N[C@H]6C(C)(C)[C@H](Oc7ccc(C#N)c(Cl)c7)C6(C)C)cn5)CC4)C3)cc1)=N[C@H](Cc1nnn(C)n1)c1nnc(C)n1-2` [Compound I-219] yielded a GI50 [1] of under 0.5 µM, a GI50 (VCaP cells) of over 3 µM and a GI50 (T47D cells) of over 3 µM. For the same compound, the GI50 [2] was over 3 µM.
`Cc1sc2c(c1C)C(c1ccc([C@H]3CC[C@]4(C3)CN(c3ncc(C(=O)N[C@H]5C(C)(C)[C@H](Oc6ccc(C#N)c(Cl)c6)C5(C)C)cn3)CCO4)cc1)=N[C@@H](Cc1ncco1)c1nnc(C)n1-2` [Compound I-404] was tested, and the GI50 [1] was over 3 µM, the GI50 (VCaP cells) was over 3 µM and the GI50 (T47D cells) was over 3 µM. For the same compound, the GI50 [2] was over 3 µM.
`Cc1sc2c(c1C)C(c1ccc(CC3CC4(CCCN(c5ncc(C(=O)N[C@H]6C(C)(C)[C@H](Oc7ccc(C#N)c(Cl)c7)C6(C)C)cn5)C4)C3)cc1)=N[C@@H](C)c1nnc(C)n1-2` [Compound I-380] was tested, and the GI50 [1] was under 0.5 µM, the GI50 (VCaP cells) was under 0.5 µM and the GI50 (T47D cells) was over 3 µM. The GI50 [2] was over 3 µM.
In the case of `Cc1sc2c(c1C)C(c1ccc(CC[C@@H]3CC[C@@]4(CCCN(c5ncc(C(=O)N[C@H]6C(C)(C)[C@H](Oc7ccc(C#N)c(Cl)c7)C6(C)C)cn5)C4)C3)cc1)=N[C@@H](Cc1ncco1)c1nnc(C)n1-2` [Compound I-249], the GI50 [1] was over 3 µM, the GI50 (VCaP cells) was over 3 µM and the GI50 (T47D cells) was over 3 µM. For the same compound, the GI50 [2] was over 3 µM.
